Reference: patent publication US6001880A, “Alkylenediamine derivative, anti-ulcer drug, and antibacterial drug” (Shiseido Co., Ltd., priority 1997, dated 1999)

Columns and labels:
[1] = test system: isolated gastric fundic gland; assay: CAP: Acid Secretion Inhibition Test In Vitro ([14C]-aminopyrine uptake); format: cell-based, rabbit (male Japanese White); settings: Oryctolagus cuniculus; final concentration 10^-5 M; histamine 10^-5 M stimulation; read-out: CAP: acid secretion inhibitory rate
Procedure, shortened: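 Collagenase-isolated rabbit gastric fundic glands (1.6×10^6 cells/ml) were stimulated with 10^-5 M histamine in the presence of test compound and [14C]-aminopyrine, then shaken 40 min at 37 °C. Pellet versus supernatant radioactivity, corrected with a 20 mM NaSCN sample, gives specific aminopyrine accumulation as the acid-secretion index; duplicates.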

[2] = test system: Helicobacter pyroli (HP NCTC 11637); assay: AHP: Antibacterial Activity Test Against Helicobacter pyroli (agar dilution); format: cell-based, Helicobacter pyroli NCTC 11637
Experimental: AHP: Antibacterial Activity Test Against Helicobacter pyroli The minimum inhibitory concentration (MIC) against Helicobacter pyroli (microacrophilic gram-negative bacterium which is supposed to deeply involve in pathogenesis, relapse, and recrudescence of ulcer, referred to as "HP" in the following) is measured so as to find out compounds which have antibacterial activity against Helicobacter pyroli. MICs were determined by the agar dilution method. The stock culture (-80° C.) of HP NCTC 11637 was thawed and cultured on tripticase soy agar supplemented with 5% sheep blood at 37° C. in an atmosphere of 5% O2, 10% CO2, and 85% N2. Grown colonies were transferred to the same plate and precultured for 3 days under the same condition. […] An appropriate amount of the colony grown on the plate by preculturing was suspended in Mueller Hinton broth till turbidness was recognizable by naked eyes, thereby yielding a bacterial suspension concentrate containing about 10^7 cfu/ml. […] 10 μl of the bacterial suspension for inoculation (about 10^3 cfu) was dropped by dispenser onto an MIC plate for inoculation and cultured for 7 days under the same condition as that of preculture. Thereafter, it was judged whether there had been bacteria growth or not. […] As the result of the comparison of these plates, when the number of the colony on the plate containing the sample compound was less than 90% with respect to that on the control plate, it was represented by "+". Contrary to this, when there was 90% or more, it was represented by "-".

SMILES | inhibition at 10 µM [1] [%] | MIC ([2]; Helicobacter, NCTC11637, 168 h, agar dilution, HP NCTC 11637, 7 days) [µg/mL] | AHP: growth class where MIC was 100 μg/ml or more ([2]; MIC 100 μg/ml or more, colony number vs control plate, 250 mM solution of sample compound)
CC(C)=CCC/C(C)=C/COc1ccc(OC/C=C(\C)CCC=C(C)C)c(C(=O)NCCN(C(C)C)C(C)C)c1 [Example 17] | 100 | < 3.13 | –
CCN(CC)CCNC(=O)c1cc(OC/C=C(\C)CCC=C(C)C)ccc1OC/C=C(\C)CCC=C(C)C [Example 16] | 100 | – | –
CCN(CC)CCNC(=O)c1cc(OCC=C(C)C)cc(OCC=C(C)C)c1 [Example 14] | 100 | – | –
CCN(CC)CCNC(=O)c1cc(OC)c(OC/C=C(\C)CCC=C(C)C)c(OC)c1 [Example 37] | 99.3 | – | –
COc1cc(C(=O)NCCN(C)C)cc(OC/C=C(\C)CCC=C(C)C)c1OC [Example 42] | 98.6 | – | –
CCN(CC=C(C)C)c1ccc(C(=O)NCCN(C(C)C)C(C)C)cc1 [Example 28] | 27.3 | – | + (the number of the colony on the plate containing the sample compound was less than 90% with respect to that on the control plate)
CCN(CC)CCNC(=O)c1cc(OC)c(OC/C=C(/C)CCC=C(C)C)c(OC)c1 [Example 38] | 99.8 | – | –
